Source: US20260347338A1, “PYRIMIDINE/PYRIDINE DERIVATIVES OR SALTS THEREOF AND PHARMACEUTICAL COMPOSITIONS COMPRISING THE SAME” (YUHAN CORPORATION, priority 2023, published 2026)
Where a name gives a salt, the structure may show the parent alone.

What follows are molecules tested against T1, human recombinant HPK1 (Homo sapiens, UniProt Q92918) (assay: Inhibitory activity against human recombinant HPK1 (TR-FRET)). Conditions: ULight-p70S6K peptide, ATP at Km, room temperature, 1 hour, 0.32 to 1000 nM compound.
T1 construct: purchased BPS Bioscience
T1 sequence (Q92918 whole entry): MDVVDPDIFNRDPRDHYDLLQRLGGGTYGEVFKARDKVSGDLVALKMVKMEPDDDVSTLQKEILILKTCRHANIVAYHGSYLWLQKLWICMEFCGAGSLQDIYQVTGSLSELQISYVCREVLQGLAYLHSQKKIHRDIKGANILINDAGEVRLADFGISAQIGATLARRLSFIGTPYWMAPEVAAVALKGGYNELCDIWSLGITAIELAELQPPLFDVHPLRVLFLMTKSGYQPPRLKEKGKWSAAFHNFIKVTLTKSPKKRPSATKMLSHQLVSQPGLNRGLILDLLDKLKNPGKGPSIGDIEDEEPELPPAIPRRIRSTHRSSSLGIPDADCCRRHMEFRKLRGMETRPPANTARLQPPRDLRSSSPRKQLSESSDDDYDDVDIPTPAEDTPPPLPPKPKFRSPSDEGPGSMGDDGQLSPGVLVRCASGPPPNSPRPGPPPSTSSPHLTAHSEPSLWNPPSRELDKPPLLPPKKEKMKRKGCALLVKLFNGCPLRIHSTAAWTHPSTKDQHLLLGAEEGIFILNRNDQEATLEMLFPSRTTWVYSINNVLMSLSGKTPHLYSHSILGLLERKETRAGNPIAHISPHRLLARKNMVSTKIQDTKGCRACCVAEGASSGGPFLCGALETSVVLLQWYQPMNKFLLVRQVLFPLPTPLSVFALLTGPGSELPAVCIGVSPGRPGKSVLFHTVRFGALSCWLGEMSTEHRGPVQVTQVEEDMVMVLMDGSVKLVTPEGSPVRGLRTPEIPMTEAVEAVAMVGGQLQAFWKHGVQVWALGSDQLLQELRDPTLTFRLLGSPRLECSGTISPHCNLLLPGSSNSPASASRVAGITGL
Assay type: biochemical
How it was run: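 Recombinant human HPK1 with ULight-p70S6K peptide and ATP at Km, 1 h at room temperature in HEPES pH 7.4 buffer with Mg2+, Mn2+, EGTA, DTT; compounds 0.32–1000 nM final. EDTA stop, Eu-anti-phosphopeptide TR-FRET read (665 nm); IC50 from % inhibition versus DMSO, binned A–D at 10, 50, 100 nM.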

SMILES	IC50
COc1cccc(F)c1-c1nccc(Nc2cc(N3CCC[C@H](N)C3)c(-c3cnn(C4CCN(C)CC4)c3)cn2)n1 [Example 74, (S)-N-(4-(3-aminopiperidin-1-yl)-5-(1-(1-methylpiperidin-4-yl)-1H-pyrazol-4-yl)pyridin-2-yl)-2-(2-fluoro-6-methoxyphenyl)pyrimidin-4-amine hydrochloride]	≤ 10 nM
COc1cccc(F)c1-c1nc(Nc2cc(N3CCC[C@H](O)C3)c(-c3cnn(C4CCOCC4)c3)cn2)ccc1Cl [Example 75, (3S)-1-(2-((5-chloro-6-(2-fluoro-6-methoxyphenyl)pyridin-2-yl)amino)-5-(1-(tetrahydro-2H-pyran-4-yl)-1H-pyrazol-4-yl)pyridin-4-yl)piperidin-3-ol]	≤ 10 nM
COc1cccc(F)c1-c1nc(Nc2cc(N3CCC[C@H](N)C3)c(-c3cnn(C(F)F)c3)cn2)ccc1F [Example 76, 4-((S)-3-aminopiperidin-1-yl)-5-(1-(difluoromethyl)-1H-pyrazol-4-yl)-N-(5-fluoro-6-(2-fluoro-6-methoxyphenyl)pyridin-2-yl)pyridin-2-amine hydrochloride]	≤ 10 nM
COc1cccc(F)c1-c1nccc(Nc2cc(N3CCC[C@@H](N)C3)c(-c3cnn(CC(F)(F)F)c3)cn2)n1 [Example 77, (R)-N-(4-(3-aminopiperidin-1-yl)-5-(1-(2,2,2-trifluoroethyl)-1H-pyrazol-4-yl)pyridin-2-yl)-2-(2-fluoro-6-methoxyphenyl)pyrimidin-4-amine hydrochloride]	≤ 10 nM
COc1cccc(F)c1-c1nccc(Nc2cc(N3CCC[C@H](N)C3)c(-c3cnn(CC(F)(F)F)c3)cn2)n1 [Example 78, (S)-N-(4-(3-aminopiperidin-1-yl)-5-(1-(2,2,2-trifluoroethyl)-1H-pyrazol-4-yl)pyridin-2-yl)-2-(2-fluoro-6-methoxyphenyl)pyrimidin-4-amine hydrochloride]	≤ 10 nM
COc1cccc(F)c1-c1nccc(Nc2cc(N3CCC[C@H](N)C3)c(C#CC3CCOCC3)cn2)n1 [Example 79, (S)-N-(4-(3-aminopiperidin-1-yl)-5-((tetrahydro-2H-pyran-4-yl)ethynyl)pyridin-2-yl)-2-(2-fluoro-6-methoxyphenyl)pyrimidin-4-amine hydrochloride]	≤ 10 nM
N[C@H]1CCCN(c2cc(Nc3ccnc(-c4cccnc4O)n3)ncc2-c2cnn(C3CCOCC3)c2)C1 [Example 80, (S)-3-(4-((4-(3-aminopiperidin-1-yl)-5-(1-(tetrahydro-2H-pyran-4-yl)-1H-pyrazol-4-yl)pyridin-2-yl)amino)pyrimidin-2-yl)pyridin-2-ol hydrochloride]	≤ 10 nM
COc1cccc(F)c1-c1nccc(Nc2cc(N3CCC[C@H](O)C3)c(-c3ccc(OC4CCN(C)CC4)cn3)cn2)n1 [Example 81, (S)-1-(6′-((2-(2-fluoro-6-methoxyphenyl)pyrimidin-4-yl)amino)-5-((1-methylpiperidin-4-yl)oxy)-[2,3′-bipyridin]-4′-yl)piperidin-3-ol]	> 100 nM
COc1cccc(F)c1-c1nccc(Nc2cc(N3CCC[C@H](N)C3)c(-c3ccc(C4CCOCC4)nc3)cn2)n1 [Example 82, (S)-4-(3-aminopiperidin-1-yl)-N-(2-(2-fluoro-6-methoxyphenyl)pyrimidin-4-yl)-6′-(tetrahydro-2H-pyran-4-yl)-[3,3′-bipyridin]-6-amine hydrochloride]	≤ 10 nM
COc1cccc(F)c1-c1nccc(Nc2cc(N3CCC[C@H](N)C3)c(-c3ccc(C4CCN(C)CC4)nc3)cn2)n1 [Example 83, (S)-4-(3-aminopiperidin-1-yl)-N-(2-(2-fluoro-6-methoxyphenyl)pyrimidin-4-yl)-6′-(1-methylpiperidin-4-yl)-[3,3′-bipyridin]-6-amine hydrochloride]	≤ 10 nM
COc1cccc(F)c1-c1nccc(Nc2cc(N3CCCC(CC(F)(F)F)C3)c(-c3cnn(C4CCOCC4)c3)cn2)n1 (centres unmarked) [Example 84, 2-(2-fluoro-6-methoxyphenyl)-N-(5-(1-(tetrahydro-2H-pyran-4-yl)-1H-pyrazol-4-yl)-4-(3-(2,2,2-trifluoroethyl)piperidin-1-yl)pyridin-2-yl)pyrimidin-4-amine]	10 to 50 nM
COc1cccc(F)c1-c1nccc(Nc2cc(N3CCCC(CF)C3)c(-c3cnn(C4CCOCC4)c3)cn2)n1 (centres unmarked) [Example 85, 2-(2-fluoro-6-methoxyphenyl)-N-(4-(3-(fluoromethyl)piperidin-1-yl)-5-(1-(tetrahydro-2H-pyran-4-yl)-1H-pyrazol-4-yl)pyridin-2-yl)pyrimidin-4-amine]	≤ 10 nM

Next, values leading:

IC50	SMILES
50 to 100 nM	COc1cccc(F)c1-c1nccc(Nc2cc(N3CCCC(NC(C)=O)C3)c(-c3cnn(C4CCOCC4)c3)cn2)n1 (centres unmarked) [Example 86, N-(1-(2-((2-(2-fluoro-6-methoxyphenyl)pyrimidin-4-yl)amino)-5-(1-(tetrahydro-2H-pyran-4-yl)-1H-pyrazol-4-yl)pyridin-4-yl)piperidin-3-yl)acetamide]
≤ 10 nM	COc1cccc(F)c1-c1nccc(Nc2cc(N3CCC(C(F)(F)F)CC3)c(-c3cnn(C4CCOCC4)c3)cn2)n1 [Example 87, 2-(2-fluoro-6-methoxyphenyl)-N-(5-(1-(tetrahydro-2H-pyran-4-yl)-1H-pyrazol-4-yl)-4-(4-(trifluoromethyl)piperidin-1-yl)pyridin-2-yl)pyrimidin-4-amine]
≤ 10 nM	N[C@H]1CCCN(c2cc(Nc3ccnc(-c4cc5nccnc5cc4F)n3)ncc2-c2cnn(C(F)F)c2)C1 [Example 88, (S)-N-(4-(3-aminopiperidin-1-yl)-5-(1-(difluoromethyl)-1H-pyrazol-4-yl)pyridin-2-yl)-2-(7-fluoroquinoxalin-6-yl)pyrimidin-4-amine hydrochloride]
≤ 10 nM	N[C@H]1CCCN(c2cc(Nc3ccnc(-c4cc5nccnc5cc4F)n3)ncc2-c2cnn(CC(F)(F)F)c2)C1 [Example 89, (S)-N-(4-(3-aminopiperidin-1-yl)-5-(1-(2,2,2-trifluoroethyl)-1H-pyrazol-4-yl)pyridin-2-yl)-2-(7-fluoroquinoxalin-6-yl)pyrimidin-4-amine hydrochloride]
≤ 10 nM	COCCn1cc(-c2cnc(Nc3ccnc(-c4c(F)cccc4OC)n3)cc2N2CCC[C@H](N)C2)cn1 [Example 91, (S)-N-(4-(3-aminopiperidin-1-yl)-5-(1-(2-methoxyethyl)-1H-pyrazol-4-yl)pyridin-2-yl)-2-(2-fluoro-6-methoxyphenyl)pyrimidin-4-amine hydrochloride]
≤ 10 nM	COc1cccc(F)c1-c1nccc(Nc2cc(N3CCC4(CCNC4)CC3)c(-c3cnn(C4CCOCC4)c3)cn2)n1 [Example 92, N-(4-(2,8-diazaspiro[4.5]decan-8-yl)-5-(1-(tetrahydro-2H-pyran-4-yl)-1H-pyrazol-4-yl)pyridin-2-yl)-2-(2-fluoro-6-methoxyphenyl)pyrimidin-4-amine hydrochloride]
10 to 50 nM	COc1cccc(F)c1-c1nccc(Nc2cc(N3CCC4(CCNCC4)C3)c(-c3cnn(C4CCOCC4)c3)cn2)n1 [Example 93, N-(4-(2,8-diazaspiro[4.5]decan-2-yl)-5-(1-(tetrahydro-2H-pyran-4-yl)-1H-pyrazol-4-yl)pyridin-2-yl)-2-(2-fluoro-6-methoxyphenyl)pyrimidin-4-amine hydrochloride]
≤ 10 nM	COc1cccc(F)c1-c1nccc(Nc2cc(N3CC[C@@H](F)[C@H](O)C3)c(-c3cnn(C4CCOCC4)c3)cn2)n1 [Example 94, (3R,4R)-4-fluoro-1-(2-((2-(2-fluoro-6-methoxyphenyl)pyrimidin-4-yl)amino)-5-(1-(tetrahydro-2H-pyran-4-yl)-1H-pyrazol-4-yl)pyridin-4-yl)piperidin-3-ol]
≤ 10 nM	COc1cccc(F)c1-c1nccc(Nc2cc(N3CC[C@H](CO)[C@@H](O)C3)c(-c3cnn(C4CCOCC4)c3)cn2)n1 [Example 95, (3R,4R)-1-(2-((2-(2-fluoro-6-methoxyphenyl)pyrimidin-4-yl)amino)-5-(1-(tetrahydro-2H-pyran-4-yl)-1H-pyrazol-4-yl)pyridin-4-yl)-4-(hydroxymethyl)piperidin-3-ol]
≤ 10 nM	COc1cccc(F)c1-c1nccc(Nc2cc(N3CC[C@@H](N)C3)c(-c3cnn(C4CCOCC4)c3)cn2)n1 [Example 96, (R)-N-(4-(3-aminopyrrolidin-1-yl)-5-(1-(tetrahydro-2H-pyran-4-yl)-1H-pyrazol-4-yl)pyridin-2-yl)-2-(2-fluoro-6-methoxyphenyl)pyrimidin-4-amine hydrochloride]
≤ 10 nM	COc1cccc(F)c1-c1nccc(Nc2cc(N3CC[C@H](N)C3)c(-c3cnn(C4CCOCC4)c3)cn2)n1 [Example 97, (S)-N-(4-(3-aminopyrrolidin-1-yl)-5-(1-(tetrahydro-2H-pyran-4-yl)-1H-pyrazol-4-yl)pyridin-2-yl)-2-(2-fluoro-6-methoxyphenyl)pyrimidin-4-amine hydrochloride]
≤ 10 nM	COc1cccc(F)c1-c1nccc(Nc2cc(N3CCC[C@H](N)C3)c(-c3cnc(C4CCN(C)CC4)s3)cn2)n1 [Example 98, (S)-N-(4-(3-aminopiperidin-1-yl)-5-(2-(1-methylpiperidin-4-yl)thiazol-5-yl)pyridin-2-yl)-2-(2-fluoro-6-methoxyphenyl)pyrimidin-4-amine hydrochloride]
10 to 50 nM	N[C@H]1CCCN(c2cc(Nc3ccnc(-c4cc5nccnc5cc4F)n3)ncc2-c2ccc(C3CCOCC3)nc2)C1 [Example 99, (S)-4-(3-aminopiperidin-1-yl)-N-(2-(7-fluoroquinoxalin-6-yl)pyrimidin-4-yl)-6′-(tetrahydro-2H-pyran-4-yl)-[3,3′-bipyridin]-6-amine hydrochloride]
≤ 10 nM	COc1cccc(F)c1-c1nc(Nc2cc(N3CCC[C@H](N)C3)c(-c3cnn(CC(F)(F)F)c3)cn2)ccc1F [Example 100, 4-((S)-3-aminopiperidin-1-yl)-N-(5-fluoro-6-(2-fluoro-6-methoxyphenyl)pyridin-2-yl)-5-(1-(2,2,2-trifluoroethyl)-1H-pyrazol-4-yl)pyridin-2-amine hydrochloride]
